Data: patent US20140073602A9, “NITRIC OXIDE DELIVERING HYDROXYALKYL STARCH DERIVATIVES” (FRESENIUS KABI DEUTSCHLAND GMBH, priority 2010, published 2014)

System: phenylephrine-precontracted aortic rings from rats
Test: Vasodilatory influence in isolated rat aortic ring preparations
Settings: first set; 1 microM
Description: The aim of the experiments was to test for the vasodilatory influence of SNO-HES in isolated rat aortic ring preparations. Isolated aortic rings from rats were precontracted by phenylephrine. SNO-HES-induced relaxations were determined after defined incubation periods. In order to completely relax the aorta and to define the 100% relaxation level, papaverine was applied at the end of an experiment. Two sets of experiments were performed:
Aortic ring preparations from adult rats (male, Lewis, 278-307 g; Janvier, St Berthevin Cedex, France) were used to perform the experiments.
All HES derivatives were supplied by Fresenius-Kabi Deutschland GmbH. SNO-HES derivatives CNO1 and CNO8 (both prepared according to GP3, table 8) were tested alongside with their precursor SH-HES (D31, prepared according to GP2.1 and GP2.2, table 6) and the unmodified HES (HES17, table 1). The first set of experiments was performed with SNO-HES derivative CNO1, the second set with CNO8.
Physiological solution contained (in mM) NaCl 120, KCl 5.5, MgSO4 1.2, KH2PO4 1.2, CaCl2 2.5, NaHCO3 25 and glucose 11. The solution was maintained at 37° C. and gassed with carbogen (95% O2+5% CO2 (v/v)). Phenylephrine (batch 050M1663) and papaverine (batch 010M1565) purchased from Sigma (Munich, Germany) were dissolved in distilled water to prepare stocks of 1 mM and 50 mM, respectively. […]

N[C@@H](CCC(=O)N[C@@H](CSN=O)C(=O)NCC(=O)O)C(=O)O [GSNO, S-nitrosogluthatione]
Relaxation of phenylephrine-contracted aortic rings (in words): immediately and completely relaxed
